In the supplement of paper PMC12494721:
Counter-ions that a name gives are not always drawn.

Key:
Details in all cases: incubation time: 27 h, anaerobic, 37 °C
[1] = test system: Clostridium sporogenes DSM 1664; test: fold change of Tryptamine concentration vs plate DMSO controls (fold change (ratio)); higher = more amine produced
[2] = test system: Clostridium sporogenes DSM 1664; test: growth (OD595) fold change vs plate DMSO controls (fold change (ratio)); higher = more growth
[3] = test system: Ruminococcus gnavus DSM 108212; test: fold change of Tryptamine concentration vs plate DMSO controls (fold change (ratio)); higher = more amine produced
[4] = test system: Ruminococcus gnavus DSM 108212; test: growth (OD595) fold change vs plate DMSO controls (fold change (ratio)); higher = more growth
[5] = test system: Ruminococcus gnavus DSM 108212; test: fold change of 2-Phenylethylamine concentration vs plate DMSO controls (fold change (ratio)); higher = more amine produced
Escherichia coli IAI1 [6] = test: fold change of Putrescine concentration vs plate DMSO controls (fold change (ratio)); higher = more amine produced
Escherichia coli IAI1 [7] = test: fold change of Cadaverine concentration vs plate DMSO controls (fold change (ratio)); higher = more amine produced
Escherichia coli IAI1 [8] = test: growth (OD595) fold change vs plate DMSO controls (fold change (ratio)); higher = more growth

Oc1c(Cl)cc(Cl)cc1Sc1cc(Cl)cc(Cl)c1O [Bithionol]
Details	fold change of Tryptamine concentration, [1]	growth, [2]
0.6125 µM	1.09	1.23
1.25 µM	1.06	1.2
2.5 µM	1.07	0.906
5 µM	0.891	0.716
10 µM	0.0764	0.142
20 µM	0.0165	-0.0314

COC(=O)N/N=C/c1c[n+]([O-])c2ccccc2[n+]1[O-] [Carbadox]
Details	fold change of Tryptamine concentration, [1]	growth, [2]
0.6125 µM	0.852	1.09
1.25 µM	0.79	0.89
2.5 µM	0.724	0.999
5 µM	0.739	1.04
10 µM	0.774	0.742
20 µM	0.343	0.333

Cn1nnnc1SCC1=C(C(=O)O)N2C(=O)[C@@H](NC(=O)[C@H](O)c3ccccc3)[C@H]2SC1 [Cefamandole sodium salt]
Details	fold change of 2-Phenylethylamine concentration, [5]	fold change of Tryptamine concentration, [3]	growth, [4]
0.6125 µM	0.85	0.992	1.26
1.25 µM	0.767	0.847	1.29
2.5 µM	0.996	1.2	1.53
5 µM	0.492	0.675	0.889
10 µM	0.244	0.357	0.479
20 µM	0.178	0.263	0.481

CO[C@@]1(NC(=O)C2SC(=C(C(N)=O)C(=O)O)S2)C(=O)N2C(C(=O)O)=C(CSc3nnnn3C)CS[C@@H]21 (stereo partly specified) [Cefotetan]
Details	fold change of Cadaverine concentration, Escherichia coli IAI1 [7]	fold change of Putrescine concentration, Escherichia coli IAI1 [6]	growth, Escherichia coli IAI1 [8]
0.6125 µM	1.08	0.781	0.849
1.25 µM	1.22	1.01	0.812
2.5 µM	1.18	0.823	0.978
5 µM	2.07	2.04	0.728
10 µM	2.24	2.6	0.123
20 µM	2.29	1.48	0.0366

CN(C)CCn1nnnc1SCC1=C(C(=O)O)N2C(=O)[C@@H](NC(=O)Cc3csc(N)n3)[C@H]2SC1 [Cefotiam hydrochloride]
Details	fold change of Cadaverine concentration, Escherichia coli IAI1 [7]	fold change of Putrescine concentration, Escherichia coli IAI1 [6]	fold change of Tryptamine concentration, [1]	growth, Escherichia coli IAI1 [8]	growth, [2]
0.6125 µM	1.29	0.767	1.02	0.969	0.8
1.25 µM	1.27	0.89	0.833	1.03	0.293
2.5 µM	1.71	2.91	0.0314	0.906	0.273
5 µM	1.34	0.839	0.0234	-0.0152	-0.0402
10 µM	0.568	0.15	0.025	-0.055	-0.0341
20 µM	0.594	0.148	0.0225	-0.0576	-0.0328

Cc1cc(O)c(C(=O)N[C@@H](C(=O)N[C@@H]2C(=O)N3C(C(=O)O)=C(CSc4nnnn4C)CS[C@H]23)c2ccc(O)cc2)cn1 [Cefpiramide]
Details	fold change of 2-Phenylethylamine concentration, [5]	fold change of Cadaverine concentration, Escherichia coli IAI1 [7]	fold change of Putrescine concentration, Escherichia coli IAI1 [6]	fold change of Tryptamine concentration, [3]	growth, Escherichia coli IAI1 [8]	growth, [4]
0.6125 µM	0.656	1.44	0.827	0.773	0.836	1.28
1.25 µM	0.288	1.57	1.34	0.388	0.802	0.921
2.5 µM	0.158	1.97	3.19	0.226	0.44	0.902
5 µM	0.132	2.19	2.27	0.183	0.259	0.827
10 µM	0.107	2.26	1.28	0.154	0.00195	0.698
20 µM	0.131	2.23	0.966	0.147	-0.0159	0.575
